Test results published in publication PMC12363342, “Investigating the N-terminal linker histone H1 subtypes as substrates for JmjC lysine demethylases” (RSC Chemical Biology, 2025).
Square brackets hold non-standard residues; d marks the D form. Ends that are not written are not given here. Lys(Me3) = C[N+](C)(C)CCCC[C@H](N)C(=O)O

Molecular target: T1, KDM4D (Homo sapiens, UniProt Q6B0I6)
T1 construct: KDM4AM1-L359,[38]; KDM4DM1-L359,[39]; KDM4EM1-R336,[30]; His6 (N); made in house; host or cells: Escherichia coli
T1 sequence (Q6B0I6 1-359): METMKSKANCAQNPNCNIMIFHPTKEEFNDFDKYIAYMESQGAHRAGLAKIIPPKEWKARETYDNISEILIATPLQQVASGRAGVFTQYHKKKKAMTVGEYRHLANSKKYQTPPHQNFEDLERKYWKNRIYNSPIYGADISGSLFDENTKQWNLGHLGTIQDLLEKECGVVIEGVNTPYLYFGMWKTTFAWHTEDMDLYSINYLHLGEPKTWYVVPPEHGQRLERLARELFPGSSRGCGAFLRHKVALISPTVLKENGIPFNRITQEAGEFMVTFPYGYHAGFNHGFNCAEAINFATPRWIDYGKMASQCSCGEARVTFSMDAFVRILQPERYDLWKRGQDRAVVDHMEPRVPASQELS
Assay: formaldehyde dehydrogenase (FDH)-coupled demethylation assay, KDM4D
Type: biochemical
Conditions: FDH-coupled fluorescence assay, KDM4D (400 nM), H1 peptide 1–50 μM, HEPES pH 7.5; for Km / kcat (KDM4D): FAS 20 μM, LAA 200 μM, 2OG 200 μM, NAD+ 500 μM, FDH 2.0 μM, mean ± SEM (n = 3); for kcat/KM (KDM4D): catalytic efficiency
Description: Kinetic parameters were determined by recording the initial reaction rates of NADH production at varying histone peptide concentrations (Fig. S24 and S25). The overall catalytic efficiencies (as measured by kcat/KM) gave the following rank orders for KDM4D: H1.5K26me3 (0.192 μM^−1 min^−1) > H1.3K24me3 (0.066 μM^−1 min^−1) ≈ H1.2K26me3 (0.063 μM^−1 min^−1) > H1.4K25me3 (0.044 μM^−1 min^−1). […] These rank orders differ somewhat from the initial screening results. However, given the complexities of 2OG oxygenase catalysis and the relatively low catalytic efficiencies observed, such apparent discrepancies are not unexpected.[28] It is also noteworthy that, in some instances, increased KM values correlate with elevated kcat values, resulting in similar kcat/KM ratios, particularly for H1.4K25me3 with KDM4D and H1.2K25me3 with KDM4E.
Kinetic parameters for demethylation of N^ε-trimethylated H1 peptides by KDM4D and KDM4E (400 nM) measured using a formaldehyde dehydrogenase-coupled demethylation assay. H1 peptide (1–50 μM), FAS (20 μM), LAA (200 μM), 2OG (200 μM), NAD^+ (500 μM), KDM4 enzyme (0.8 μM) and FDH (2.0 μM) in HEPES buffer at pH 7.5. Each value is shown as mean ± SEM (n = 3)
Substrate Km values for KDM4 enzymes were determined using a reported formaldehyde dehydrogenase/NAD coupled enzyme assay that quantifies formaldehyde production.[30] In brief, DNA encoding for wild-type full-length formaldehyde dehydrogenase was synthesised (by GenScript) and cloned into the pET-28B vector. The resultant plasmid was then transformed into the Rosetta strain of Escherichia coli. Coupled enzyme-assays were carried out in black polystyrene 384-well non-binding surface microplates (Corning) and kinetic measurements were obtained using a PHERAstar FS plate reader (BMG Labtech) equipped with a 350 nm excitation and 460 nm emission optic module.[30] All steps were performed in the assay buffer (50 mM HEPES pH 7.5, 0.01% (v/v) Tween-20). Substrate mixtures were prepared freshly and contained FAS (20 μM), LAA (200 μM), 2OG (200 μM), NAD^+ (500 μM), and H1 peptide (1–50 μM); they were dispensed (25 μL final volume) in triplicate. Assays were initiated by plate reader injection of 25 μL of a mixture of KDM4 (0.8 μM) and formaldehyde dehydrogenase (FDH) (2.0 μM) in assay buffer (50 mM HEPES pH 7.5, 0.01% (v/v) Tween-20). Production of NADH was measured at 60 second intervals over 25 cycles. Kinetic parameters were determined from the reaction rate during the initial linear phase of formaldehyde production, and specific activities were calculated from a formaldehyde standard curve and fitted to the Michaelis–Menten equation using GraphPad Prism Version 5.0 (GraphPad software, La Jolla, CA, USA). Each assay was carried out in triplicate with independently prepared reaction mixtures.

| Substance | Km [µM] | kcat (KDM4D) [s⁻¹] | kcat/KM (KDM4D) [M⁻¹ s⁻¹] |
| --- | --- | --- | --- |
| KKKAAK[Lys(Me3)]AGGTPRKA [Peptide H1.2K26me3, 15-mer linker histone H1.2 residues 20-34 peptide, tri-methylated K26] | 4.6 ± 0.41 | 0.00483 ± 0.00017 | 1050 |
| KKKAR[Lys(Me3)]SAGAAKRKA [Peptide H1.4K25me3, 15-mer linker histone H1.4 residues 20-34 peptide, tri-methylated K25] | 60 ± 24.3 | 0.0443 ± 0.0152 | 733 |
| KKKATK[Lys(Me3)]AAGAGAAK [Peptide H1.5K26me3, 15-mer linker histone H1.5 residues 20-34 peptide, tri-methylated K26] | 7.51 ± 0.77 | 0.024 ± 0.0013 | 3200 |
| KKKA[Lys(Me3)]KAGATAGKRK [Peptide H1.3K24me3, 15-mer linker histone H1.3 residues 20-34 peptide, tri-methylated K24] | 5.93 ± 0.69 | 0.0065 ± 0.00033 | 1100 |
